Data: patent US11136321B2, “Tricyclic compounds” (ALIGOS THERAPEUTICS, INC., priority 2019, dated 2021)

What follows are molecules tested on HBV (assay: HBV-DNA antiviral assay using HepG2.117 cells). Conditions: Hepatitis B virus, 72 h, intracellular HBV DNA by qPCR, 3 days incubation.
Type: cell-based, genotype D HBV
Experimental: The following assay procedure describes the HBV antiviral assay, using HepG2.117 cells, which carry a stably integrated genotype D HBV genome under the control of a Tet-off promoter, and intracellular HBV DNA quantification as endpoint. Cell viability is assessed in parallel by measuring the intracellular ATP content using ATPlite (Perkin Elmer).
On day 0, HepG2.117 cells (which are maintained in routine cell culture with doxycycline present in the medium at a final concentration of 1 μg/mL) were seeded in 96-well plates (white with clear bottom) at a density of 2.0×10^4 cells/well (0.1 mL/well) in medium without doxycycline to induce pgRNA transcription and subsequent formation of HBV particles. The cells were incubated at 37° C. and 5% CO2.
On day 1, medium was removed from each well, the test articles were diluted in culture medium without doxcycyline and 100 μL was added to cell culture wells (9 concentrations, 4-fold dilution). For each plate, 6 untreated (merely DMSO) wells were included. The final concentration of DMSO in the culture medium was 2%. Each plate was prepared in duplicate (one for HBV DNA extraction, one for ATPlite measurement). The cells were incubated at 37° C. and 5% CO2 for 3 days.
On day 4, cell viability was assessed using ATPlite and cell lysates were prepared for HBV DNA extraction and subsequent quantification by qPCR.
Medium was removed from each well and 100 μL of 0.33% NP-40 in H2O was added to each well. Plates were sealed, incubated at 4° C. for 5 mins, vortexed extensively and centrifuged briefly. Next, 35 μL of lysate was added to 65 μL QuickExtract DNA Extraction Solution (Epicentre) in a PCR plate for each well. PCR plate was incubated at 65° C. for 6 mins, 98° C. for 2 mins and finally cooled to 4° C. HBV DNA was then quantified by qPCR with HBV-specific primers and probes as specified in Table 1 using the Bio-Rad SSOAdvanced Universal Probes Supermix on a CFX96 machine (Bio-Rad). The PCR cycle program consisted of 95° C. for 3 mins, followed by 40 cycles at 95° C. for 10 sec and 60° C. for 30 sec.
A DNA standard was prepared by dilution of an IDT gBlock corresponding to the amplicon with concentrations ranging from 10^2 to 10^8 copies/input (i.e. per 4 μL) and used to generate a standard curve by plotting Cq values vs. HBV DNA standard concentration. The quantity of HBV DNA in each sample was determined by interpolating from the standard curve.
Cell viability was calculated as follows: % Cell viability=(luminescence value of test sample)/(average luminescence value of 2% DMSO control)×100%. HBV DNA inhibition was calculated as follows: 100−(HBV DNA copy number of test sample)/(average HBV DNA copy number of 2% DMSO control)×100%. No normalization to entecavir was required due to the excellent dynamic window of this assay. The CC50, EC50 and EC90 values were determined by dose-response curves fitted by GraphPad Prism using “log (agonist) vs. response—Variable slope”.

`COc1cccc(-n2c(=O)c3c(n4ncc(NCc5ccccc5)c24)CN(C(=O)c2ccc(Br)c(Cl)c2)CC3)c1` [Compound 28, 5-(benzylamino)-12-(4-bromo-3-chloro-benzoyl)-7-(3-methoxyphenyl)-2,3,7,12-tetrazatricyclo [7.4.0.0 2,6] trideca-1(9),3,5-trien-8-one] and `CNC(=O)c1ccc(-n2c(=O)c3c(n4ncc(NCc5ccccc5)c24)CN(C(=O)c2ccc(Br)c(Cl)c2)CC3)cc1` [Compound 47, 4-[5-(benzylamino)-12-(4-bromo-3-chloro-benzoyl)-8-oxo-2,3,7,12-tetrazatricyclo [7.4.0.0 2,6]trideca-1(9),3,5-trien-7-yl]-N-methyl-benzamide] cannot be ordered by EC50: 100 to 500 nM for the first, at most 100 nM for the second.

`COc1ccc(-n2c(=O)c3c(n4ncc(NC(=O)c5ccccc5)c24)CN(C(=O)c2ccc(Br)c(Cl)c2)CC3)cc1` [Compound 30, N-[12-(4-bromo-3-chloro-benzoyl)-7-(4-methoxyphenyl)-8-oxo-2,3,7,12-tetrazatricyclo [7.4.0.0 2,6]trideca-1(9),3,5-trien-5-yl] benzamide] and `COc1ccc(-n2c(=O)c3c(n4ncc(NS(=O)(=O)c5ccccc5)c24)CN(C(=O)c2ccc(Br)c(Cl)c2)CC3)cc1` [Compound 31, N-[12-(4-bromo-3-chloro-benzoyl)-7-(4-methoxyphenyl)-8-oxo-2,3,7,12-tetrazatricyclo [7.4.0.0 2,6]trideca-1(9),3,5-trien-5-yl] benzenesulfonamide] cannot be ordered by EC50: 100 to 500 nM for the first, at most 100 nM for the second.

Compared with `COc1ccc(-n2c(=O)c3c(n4ncc(NS(=O)(=O)Cc5ccccc5)c24)CN(C(=O)c2ccc(Br)c(Cl)c2)CC3)cc1` [Compound 33, N-[12-(4-bromo-3-chloro-benzoyl)-7-(4-methoxyphenyl)-8-oxo-2,3,7,12-tetrazatricyclo [7.4.0.0 2,6]trideca-1(9),3,5-trien-5-yl]-1-phenyl-methanesulfonamide], `CNC(=O)c1ccc(-n2c(=O)c3c(n4ncc(Nc5ccccc5)c24)CN(C(=O)c2ccc(Br)c(Cl)c2)CC3)cc1` [Compound 40, 4-[5-anilino-12-(4-bromo-3-chloro-benzoyl)-8-oxo-2,3,7,12-tetrazatricyclo [7.4.0.0 2,6]trideca-1(9),3,5-trien-7-yl]-N-methyl-benzamide] is lower in EC50: 500 to 5000 nM for the first, at most 100 nM for the second. The second is the more potent here.

`CNC(=O)c1ccc(-n2c(=O)c3c(n4ncc(Cc5ccccc5)c24)CN(C(=O)c2ccc(Cl)c(Cl)c2)CC3)cc1` [Compound 34, 4-[5-benzyl-12-(3,4-dichlorobenzoyl)-8-oxo-2,3,7,12-tetrazatricyclo [7.4.0.0 2,6]trideca-1(9),3,5-trien-7-yl]-N-methyl-benzamide] and `CNC(=O)c1ccc(-n2c(=O)c3c(n4ncc(NCc5ccccc5)c24)CN(C(=O)c2ccc(Cl)c(Cl)c2)CC3)cc1` [Compound 42, 4-[5-(benzylamino)-12-(3,4-dichlorobenzoyl)-8-oxo-2,3,7,12-tetrazatricyclo [7.4.0.0 2,6]trideca-1(9),3,5-trien-7-yl]-N-methyl-benzamide] cannot be ordered by EC50: at most 100 nM for the first, at most 100 nM for the second.

`CNC(=O)c1ccc(-n2c(=O)c3c(n4ncc(Cc5ccc(OC(F)(F)F)cc5)c24)CN(C(=O)c2ccc(Cl)c(Cl)c2)CC3)cc1` [Compound 36, 4-[12-(3,4-dichlorobenzoyl)-8-oxo-5-[[4-(trifluoromethoxy)phenyl]methyl]-2,3,7,12-tetrazatricyclo [7.4.0.0 2,6]trideca-1(9),3,5-trien-7-yl]-N-methyl-benzamide] and `CNC(=O)c1ccc(-n2c(=O)c3c(n4ncc(NCc5ccc(OC(F)(F)F)cc5)c24)CN(C(=O)c2ccc(Cl)c(Cl)c2)CC3)cc1` [Compound 44, 4-[12-(3,4-dichlorobenzoyl)-8-oxo-5-[[4-(trifluoromethoxy)phenyl]methylamino]-2,3,7,12-tetrazatricyclo [7.4.0.0 2,6]trideca-1(9),3,5-trien-7-yl]-N-methyl-benzamide] fall in the same range of EC50: 100 to 500 nM for the first, 100 to 500 nM for the second.

`CNC(=O)c1ccc(-n2c(=O)c3c(n4ncc(Cc5ccccc5)c24)CN(C(=O)c2ccc(Br)c(C#N)c2)CC3)cc1` [Compound 37, 4-[5-benzyl-12-(4-bromo-3-cyano-benzoyl)-8-oxo-2,3,7,12-tetrazatricyclo [7.4.0.0 2,6]trideca-1(9),3,5-trien-7-yl]-N-methyl-benzamide] and `CNC(=O)c1ccc(-n2c(=O)c3c(n4ncc(Cc5ccc(C#N)cc5)c24)CN(C(=O)c2ccc(Br)c(Cl)c2)CC3)cc1` [Compound 43, 4-(8-(4-bromo-3-chlorobenzoyl)-3-(4-cyanobenzyl)-5-oxo-6,7,8,9-tetrahydropyrazolo[1,5-a]pyrido[4,3-e]pyrimidin-4(5H)-yl)-N-methylbenzamide] cannot be ordered by EC50: at most 100 nM for the first, at most 100 nM for the second.

`CNC(=O)c1ccc(-n2c(=O)c3c(n4ncc(Cc5ccccc5)c24)CN(C(=O)c2ccc(Br)c(Cl)c2)CC3)cc1Cl` [Compound 38, 4-[5-benzyl-12-(4-bromo-3-chloro-benzoyl)-8-oxo-2,3,7,12-tetrazatricyclo [7.4.0.0 2,6]trideca-1(9),3,5-trien-7-yl]-2-chloro-N-methyl-benzamide] and `CNC(=O)c1ccc(-n2c(=O)c3c(n4ncc(Cc5ccc(C#N)cc5)c24)CN(C(=O)c2ccc(Cl)c(Cl)c2)CC3)cc1` [Compound 48, 4-[5-[(4-cyanophenyl)methyl]-12-(3,4-dichlorobenzoyl)-8-oxo-2,3,7,12-tetrazatricyclo [7.4.0.0 2,6]trideca-1(9),3,5-trien-7-yl]-N-methyl-benzamide] cannot be ordered by EC50: at most 100 nM for the first, at most 100 nM for the second.

Compared with `CNC(=O)c1ccc(-n2c(=O)c3c(n4ncc(Nc5ccccc5)c24)CN(C(=O)c2ccc(Cl)c(Cl)c2)CC3)cc1` [Compound 39, 4-[5-anilino-12-(3,4-dichlorobenzoyl)-8-oxo-2,3,7,12-tetrazatricyclo [7.4.0.0 2,6]trideca-1(9),3,5-trien-7-yl]-N-methyl-benzamide], `CNC(=O)c1ccc(-n2c(=O)c3c(n4ncc(NCc5ccc(OC(F)F)cc5)c24)CN(C(=O)c2ccc(Cl)c(Cl)c2)CC3)cc1` [Compound 41, 4-[12-(3,4-dichlorobenzoyl)-5-[[4-(difluoromethoxy)phenyl]methylamino]-8-oxo-2,3,7,12-tetrazatricyclo [7.4.0.0 2,6]trideca-1(9),3,5-trien-7-yl]-N-methyl-benzamide] is higher in EC50: at most 100 nM for the first, 500 to 5000 nM for the second. The first is the more potent here.

`CNC(=O)c1ccc(-n2c(=O)c3c(n4ncc(NCc5ccc(OC(F)(F)F)cc5)c24)CN(C(=O)c2ccc(Br)c(Cl)c2)CC3)cc1` [Compound 45, 4-[12-(4-bromo-3-chloro-benzoyl)-8-oxo-5-[[4-(trifluoromethoxy)phenyl]methylamino]-2,3,7,12-tetrazatricyclo [7.4.0.0 2,6]trideca-1(9),3,5-trien-7-yl]-N-methyl-benzamide] and `CNC(=O)c1ccc(-n2c(=O)c3c(n4ncc(NCc5ccc(OC(F)F)cc5)c24)CN(C(=O)c2ccc(Br)c(Cl)c2)CC3)cc1` [Compound 46, 4-[12-(4-bromo-3-chloro-benzoyl)-5-[[4-(difluoromethoxy)phenyl]methylamino]-8-oxo-2,3,7,12-tetrazatricyclo [7.4.0.0 2,6]trideca-1(9),3,5-trien-7-yl]-N-methyl-benzamide] cannot be ordered by EC50: at most 100 nM for the first, at most 100 nM for the second.

Same assay, conditions: intracellular HBV DNA by qPCR, 3 days incubation

`CNC(=O)c1ccc(-n2c(=O)c3c(n4ncc(Cc5ccccc5)c24)CN(C(=O)c2ccc(Br)c(Cl)c2)CC3)cc1` [Compound 29, 4-[5-benzyl-12-(4-bromo-3-chlorobenzoyl)-8-oxo-2,3,7,12-tetraazatricyclo[7.4.0.0^[2,6]]trideca-1(9),3,5-trien-7-yl]-N-methylbenzamide] and `CNC(=O)c1ccc(-n2c(=O)c3c(n4ncc(Cc5ccc(OC(F)(F)F)cc5)c24)CN(C(=O)c2ccc(Br)c(Cl)c2)CC3)cc1` [Compound 35, 4-[12-(4-bromo-3-chlorobenzoyl)-8-oxo-5-[[4-(trifluoromethoxy)phenyl]methyl]-2,3,7,12-tetraazatricyclo[7.4.0.0^[2,6]]trideca-1(9),3,5-trien-7-yl]-N-methylbenzamide] cannot be ordered by EC50: at most 100 nM for the first, at most 100 nM for the second.

Work on `COc1ccc(-n2c(=O)c3c(n4ncc(Nc5ccccc5)c24)CN(C(=O)c2ccc(Br)c(Cl)c2)CC3)cc1` [Compound 32, 12-(4-bromo-3-chlorobenzoyl)-7-(4-methoxyphenyl)-5-(phenylamino)-2,3,7,12-tetraazatricyclo[7.4.0.0^[2,6]]trideca-1(9),3,5-trien-8-one] yielded an EC50 of at most 100 nM.
